In patent publication US20260356846A1, “STATIN DERIVATIVES AND METHODS OF USING THE SAME” (The General Hospital Corporation, priority 2023, published 2026):
Like-named read-outs stand apart in the source and are kept apart here.

What was measured:
[1] = tested on: STMN2 (WT STMN2-NLuc SH-SY5Y cells); test: STMN2 nanoluciferase assay in WT SH-SY5Y cells (Table A: WT TDP-32; Table B: WT HD Luciferase); format: cell-based, human; conditions: WT cell line
Description: (§1) Neuroblastoma cells (ATCC) were cultured in DMEM/F12 (Gibco) supplemented with 10% fetal-bovine serum (Omega) and 1% penicillin-streptomycin (Gibco) at 37 °C with 5% CO2. For knockdown experiments, cells were transfected with SMARTpool ON-TARGETplus siRNA or control siRNA pool (D001810-10) (GE Dharmacon) at a final concentration of 50 nM, for 96 h in two doses (0, 24 h), after complexing with Lipofectamin RNAiMAX (Invitrogen) in Opti-MEM (Gibco) for 10 min.
(§2) WT and TDP-mut (N352S) SH-SY5Y cells were edited using CRISPR-Cas9 to express Nanoluciferase at the C-terminus of both endogenous STMN2 alleles. A single guided RNA targeting STMN2 C-terminus was designed (Benchling webtool) and cloned into pSpCas9-2A-green fluorescent protein (GFP) plasmid (px458-Addgene) using the BbsI restriction site. The sequence for guided RNA targeting STMN2 was: […]. For the repair template, overlapping fragments of 800 bp STMN2 homology arms flanking Nanoluciferase (NLuc, Promega) were generated and ligated into pUC57 backbone. A 42 bp GS-linker was also included 5′ to NLuc to prevent steric hindrance of the reporter to the final STMN2 exon. Fragments were ligated using Gibson Assembly and nucleofected simultaneously with pSpCas9-2A-GFP-gRNA plasmid using the Amaxa Nucleofector (assay A-023). Forty-eight hours following electroporation, cells were collected, and GFP-positive cells sorted and single-cell seeded into 96-well plates using the SH800S Sony cell sorter. Individual clones were expanded and DNA was extracted for PCR amplification of the STMN2 Ex5 genomic locus using primers within NLuc and outside the STMN2 5′ homology arm to confirm presence of the insert. The entire STMN2 coding region and all exon-intron junctions (>500-bp length of each intronic region) were then sequenced to verify the absence of any additional DNA alteration. qPCR analysis was performed with a wild-type isogenic SH-SY5Y cell line that had undergone the mutagenesis attempt but not acquired the insertion mutation during the original screening process.
(§3) TDP-mut STMN2-NLuc SH-SY5Y cells were used in small-molecule screening at ICCB-Longwood. 3000 cells/well were plated in white 384-well plates using a 50 ul sample volume. 24 hours after plating, compounds were added using 100 nl pin transfer. 24 hours later, 25 ul NLuc assay was added to each well according to manufacturer instructions (Promega, Cat #). Plates were shaken for 1 min prior to luminescence readings using EnVision2 machine. DMSO-only and WT STMN2-NLuc cells were included as negative and positive controls respectively on each plate, producing an average Z′score of ~0.7 across the screen. Each library plate was conducted in duplicate, and Z-scores calculated for each compound. For subsequent validation experiments, cell numbers in each well were quantified by hoescht staining at 1 μg/ml for 15 mins at 37C in black, clear bottom plates, prior to imaging at 4× using automated microscopy (ImageXpressMicro). Nuclei were then counted using a custom algorithm, and luciferase assay run as above. Luminescence results were then normalised against cell counts as RLU/cell.
(§4) Each compound was tested in triplicate in log doses ranging 0.01 μM−10 μM. The values are represented in luminescence normalized to the number of cells in the well, wherein darker grey correlates to higher RLU per cell and higher STMN2 protein expression.

[2] = tested on: STMN2 (TDP-mut (N352S) STMN2-NLuc SH-SY5Y cells); test: STMN2 nanoluciferase assay in TDP-43 mutant SH-SY5Y cells (Table A: mut TDP-43; Table B: mut HD Luciferase); format: cell-based, human; conditions: mutant TDP-43 cell line
Description: as §1, §2, §3, §4

[3] = Homo sapiens, SH-SY5Y, Table B, read-out: EC50, WT HD Luciferase
[4] = Homo sapiens, SH-SY5Y, Table B, read-out: EC50, mut HD Luciferase
[5] = Homo sapiens, SH-SY5Y, Table B, Emax
[6] = Homo sapiens, SH-SY5Y, Table A, read-out: EC50, WT TDP-32
[7] = Homo sapiens, SH-SY5Y, Table A, read-out: EC50, mut TDP-43

EC50 [1, 3] [nM] | EC50 [2, 4] [nM] | EC50 [1, 6] [nM] | EC50 [2, 7] [nM] | HD Luciferase (WT, Emax) ([1]; Table B, Emax) | EC50 ([1]; Table B, read-out: EC50, WT HD Luciferase) [nM] | EC50 ([2]; Table B, read-out: EC50, mut HD Luciferase) [nM] | SMILES | HD Luciferase (mut, Emax) ([2]; Table B) | maximal fold induction [1, 5]
10 to 50 | 10 to 50 | – | – | – | – | – | COCc1c(C2CC2)nc(C2CC2)c(/C=C/[C@@H](O)C[C@@H](O)CC(=O)O)c1-c1ccccc1Cl [II-25, (3R,5S,E)-7-(4-(2-chlorophenyl)-2,6-dicyclopropyl-5-(methoxymethyl)pyridin-3-yl)-3,5-dihydroxyhept-6-enoic acid] | – | –
10 to 50 | 10 to 50 | – | – | – | – | – | COCc1c(C2CC2)nc(C2CC2)c(/C=C/[C@@H](O)C[C@@H](O)CC(=O)O)c1-c1cc(Cl)ccc1F [II-20, (3R,5S,E)-7-(4-(5-chloro-2-fluorophenyl)-2,6-dicyclopropyl-5-(methoxymethyl)pyridin-3-yl)-3,5-dihydroxyhept-6-enoic acid] | – | 1.25 to 1.5
≥ 500 | ≥ 500 | – | – | – | – | – | O=C(O)C[C@H](O)C[C@H](O)/C=C/c1c(-c2ccc(F)cc2Cl)cc(C2CC2)nc1C1CCC1 [II-27, (3R,5S,E)-7-(4-(2-chloro-4-fluorophenyl)-2-cyclobutyl-6-cyclopropylpyridin-3-yl)-3,5-dihydroxyhept-6-enoic acid] | * (means≥1 and <1.25) | 1 to 1.25
≤ 10 | ≤ 10 | – | – | – | – | – | Cc1cc(F)ccc1-c1cc(C2CC2)nc(C2CC2)c1/C=C/[C@@H](O)C[C@@H](O)CC(=O)O [II-12, (3R,5S,E)-7-(2,6-dicyclopropyl-4-(4-fluoro-2-methylphenyl)pyridin-3-yl)-3,5-dihydroxyhept-6-enoic acid] | – | –
100 to 500 | 100 to 500 | 500 to 1000 | 500 to 1000 | – | – | – | COCc1c(C2CCC2)nc(C2CCC2)c(/C=C/[C@@H](O)C[C@@H](O)CC(=O)O)c1-c1ccc(F)cc1Cl [II-3, (3R,5S,E)-7-(4-(2-chloro-4-fluorophenyl)-2,6-dicyclobutyl-5-(methoxymethyl)pyridin-3-yl)-3,5-dihydroxyhept-6-enoic acid] | ** (means≥1.25 and <1.5) | 1.25 to 1.5
≤ 10 | ≤ 10 | – | – | – | – | – | COCc1c(C2CC2)nc(C2CC2)c(/C=C/[C@@H](O)C[C@@H](O)CC(=O)O)c1-c1c(C)cc(F)cc1F [II-17, (3R,5S,E)-7-(2,6-dicyclopropyl-4-(2,4-difluoro-6-methylphenyl)-5-(methoxymethyl)pyridin-3-yl)-3,5-dihydroxyhept-6-enoic acid] | – | 1.5 to 1.75
≤ 10 | ≤ 10 | 100 to 500 | ≤ 100 | – | – | – | COCc1c(C23CC(C2)C3)nc(C2CC2)c(/C=C/[C@@H](O)C[C@@H](O)CC(=O)O)c1-c1ccc(F)cc1 [II-2, (3R,5S,E)-7-(6-(bicyclo[1.1.1]pentan-1-yl)-2-cyclopropyl-4-(4-fluorophenyl)-5-(methoxymethyl)pyridin-3-yl)-3,5-dihydroxyhept-6-enoic acid] | – | –
≤ 10 | ≤ 10 | ≤ 100 | ≤ 100 | – | – | – | COCc1c(C2CC2)nc(C2CC2)c(/C=C/[C@@H](O)C[C@@H](O)CC(=O)O)c1-c1ccc(F)cc1Cl [II-9, (3R,5S,E)-7-(4-(2-chloro-4-fluorophenyl)-2,6-dicyclopropyl-5-(methoxymethyl)pyridin-3-yl)-3,5-dihydroxyhept-6-enoic acid] | – | 1.5 to 1.75
≤ 10 | ≤ 10 | ≤ 100 | ≤ 100 | – | – | – | COCc1c(C2CCC2)nc(C2CC2)c(/C=C/[C@@H](O)C[C@@H](O)CC(=O)O)c1-c1ccc(F)cc1Cl [II-4, (3R,5S,E)-7-(4-(2-chloro-4-fluorophenyl)-6-cyclobutyl-2-cyclopropyl-5-(methoxymethyl)pyridin-3-yl)-3,5-dihydroxyhept-6-enoic acid] | – | –
10 to 50 | 10 to 50 | – | – | – | – | – | O=C(O)C[C@H](O)C[C@H](O)/C=C/c1c(C2CC2)nc(C2CC2)c(COC2CC2)c1-c1ccc(Cl)cc1F [II-23, (3R,5S,E)-7-(4-(4-chloro-2-fluorophenyl)-5-(cyclopropoxymethyl)-2,6-dicyclopropylpyridin-3-yl)-3,5-dihydroxyhept-6-enoic acid] | – | –
10 to 50 | 10 to 50 | – | – | – | – | – | COCc1c(C2CC2)nc(C2CC2)c(/C=C/[C@@H](O)C[C@@H](O)CC(=O)O)c1-c1cc(F)ccc1Cl [II-13, (3R,5S,E)-7-(4-(2-chloro-5-fluorophenyl)-2,6-dicyclopropyl-5-(methoxymethyl)pyridin-3-yl)-3,5-dihydroxyhept-6-enoic acid] | – | –

Second part, the compound before the results:

SMILES | EC50 [1, 3] [nM] | EC50 [2, 4] [nM] | EC50 [1, 6] [nM] | EC50 [2, 7] [nM] | HD Luciferase (WT, Emax) ([1]; Table B, Emax) | EC50 ([1]; Table B, read-out: EC50, WT HD Luciferase) [nM] | EC50 ([2]; Table B, read-out: EC50, mut HD Luciferase) [nM] | HD Luciferase (mut, Emax) ([2]; Table B) | maximal fold induction [1, 5]
O=C(O)C[C@H](O)C[C@H](O)/C=C/c1c(C2CC2)cc2ncsc2c1-c1ccc(F)cc1 [Example I-11, (3R,5S,E)-7-(5-cyclopropyl-7-(4-fluorophenyl)benzo[d]thiazol-6-yl)-3,5-dihydroxyhept-6-enoic acid] | 10 to 50 | 10 to 50 | – | – | – | – | – | ** (means≥1.25 and <1.5) | –
Cc1csc2c(-c3ccc(F)cc3)c(/C=C/[C@@H](O)C[C@@H](O)CC(=O)O)c(C3CC3)nc12 [Example I-1, (3R,5S,E)-7-(5-cyclopropyl-7-(4-fluorophenyl)-3-methylthieno[3,2-b]pyridin-6-yl)-3,5-dihydroxyhept-6-enoic acid] | 10 to 50 | ≤ 10 | ≤ 100 | ≤ 100 | – | – | – | – | 1.5 to 1.75
Cc1csc2nc(C3CC3)c(/C=C/[C@@H](O)C[C@@H](O)CC(=O)O)c(-c3ccc(Cl)cc3)c12 [Example I-34, (3R,5S,E)-7-(4-(4-chlorophenyl)-6-cyclopropyl-3-methylthieno[2,3-b]pyridin-5-yl)-3,5-dihydroxyhept-6-enoic acid] | 100 to 500 | 50 to 100 | – | – | – | – | – | – | 1.5 to 1.75
O=C(O)C[C@H](O)C[C@H](O)/C=C/c1c(C2CC2)nc2scnc2c1-c1ccc(F)cc1 [Example I-2, (3R,5S,E)-7-(5-cyclopropyl-7-(4-fluorophenyl)thiazolo[5,4-b]pyridin-6-yl)-3,5-dihydroxyhept-6-enoic acid] | ≥ 500 | ≥ 500 | – | – | – | – | – | * (means≥1 and <1.25) | 1 to 1.25
Cc1csc2c(-c3ccc(F)cc3)c(/C=C/[C@@H](O)C[C@@H](O)CC(=O)N(C)C)c(C3CC3)nc12 [Example I-26, (3R,5S,E)-7-(5-cyclopropyl-7-(4-fluorophenyl)-3-methylthieno[3,2-b]pyridin-6-yl)-3,5-dihydroxy-N,N-dimethylhept-6-enamide] | ≥ 500 | ≥ 500 | – | – | – | – | – | * (means≥1 and <1.25) | 1 to 1.25
Cc1cc2c(-c3ccc(F)cc3)c(/C=C/[C@@H](O)C[C@@H](O)CC(=O)O)c(C3CC3)nc2s1 [Example I-5c, (3R,5S,E)-7-(6-cyclopropyl-4-(4-fluorophenyl)-2-methylthieno[2,3-b]pyridin-5-yl)-3,5-dihydroxyhept-6-enoic acid] | – | – | – | – | ** (means≥1.25 and <1.5) | 100 to 500 | 100 to 500 | – | –
Cc1csc2c(-c3ccc(F)cc3)c(CC[C@H](O)C[C@@H](O)CC(=O)O)c(C3CC3)nc12 [Example I-33, (3R,5S)-7-(5-cyclopropyl-7-(4-fluorophenyl)-3-methylthieno[3,2-b]pyridin-6-yl)-3,5-dihydroxyheptanoic acid] | 100 to 500 | 100 to 500 | – | – | – | – | – | ** (means≥1.25 and <1.5) | –
